Measurements from patent publication US11464763B2, “Parasiticidal compositions comprising an isoxazoline active agent, methods and uses thereof” (BOEHRINGER INGELHEIM ANIMAL HEALTH USA INC., priority 2011, dated 2022).

Test system: Ctenocephalides felis
Assay: Long lasting spot-on efficacy against Ctenocephalides felis fleas in cats (Example 9)
Format: in vivo
Procedure: The efficacy of spot-on compositions comprising Cmpd. A in DMI at different doses against Ctenocephalides felis fleas in cats was studied. Four treatment groups were formed with five cats per treatment group: Group 1—untreated control; Group 2—Compound A at 5.0% (w/v) in DMI to deliver a dose of 5 mg/kg; Group 3—Compound A at a concentration of 10.0% (w/v) in DMI to deliver a dose of 10 mg/kg; and Group 4—Compound A at a concentration of 15.0% (w/v) in DMI to deliver a dose of 15 mg/kg. Treatment was administered once on Day 0. The cats were each infested with approximately 100 C. felis fleas at each time point evaluated.
Cats in all treatment groups were infested on Days −1, 0 (approx. 12 h following treatment), 7, 28, 49, 70, 91, 105, 119 and 133. Cats were also infested on Days 126 and 140 (Treatment Groups 1 and 2); Days 147, 154, 155, 161, 168 and 175 (Treatment Groups 1, 3 and 4); Days 182, 189 and 197 (Treatment Groups 1 and 4). After each infestation, fleas were removed and counted approximately 48 hours (±3 hours) for most time points.

SMILES: O=C(CNC(=O)c1ccc(C2=NOC(c3cc(Cl)cc(C(F)(F)F)c3)(C(F)(F)F)C2)c2ccccc12)NCC(F)(F)F (centres unmarked) [Compound A, 4-[5-[3-chloro-5-(trifluoromethyl)phenyl]-4,5-dihydro-5-(trifluoromethyl)-3-isoxazolyl]-N-[2-oxo-2-[(2,2,2-trifluoroethyl)amino]ethyl]-1-naphthalanecarboxamide]
- efficacy against fleas (Group 2 (5 mg/kg), up to Day 121): 90%
- % Reduction Fleas (Group 2: 5.0% in DMI, 5 mg/kg, Day 0 (12 hr)): 61.1%
- % Reduction Fleas (Group 2: 5.0% in DMI, 5 mg/kg, Day 2): 100.0%
- % Reduction Fleas (Group 2: 5.0% in DMI, 5 mg/kg, Day 9): 100.0%
- % Reduction Fleas (Group 2: 5.0% in DMI, 5 mg/kg, Day 30): 100.0%
- % Reduction Fleas (Group 2: 5.0% in DMI, 5 mg/kg, Day 51): 100.0%
- % Reduction Fleas (Group 2: 5.0% in DMI, 5 mg/kg, Day 72): 100.0%
- % Reduction Fleas (Group 2: 5.0% in DMI, 5 mg/kg, Day 93): 100.0%
- % Reduction Fleas (Group 2: 5.0% in DMI, 5 mg/kg, Day 107): 100.0%
- % Reduction Fleas (Group 2: 5.0% in DMI, 5 mg/kg, Day 121): 92.3%
- % Reduction Fleas (Group 2: 5.0% in DMI, 5 mg/kg, Day 128): 89.1%
- % Reduction Fleas (Group 2: 5.0% in DMI, 5 mg/kg, Day 135): 88.3%
- % Reduction Fleas (Group 2: 5.0% in DMI, 5 mg/kg, Day 142): 80.0%
- efficacy against fleas (Group 3 (10 mg/kg), up to Day 163): 90%
- % Reduction Fleas (Group 3: 10.0% in DMI, 10 mg/kg, Day 0 (12 hr)): 95.4%
- % Reduction Fleas (Group 3: 10.0% in DMI, 10 mg/kg, Day 2): 100.0%
- % Reduction Fleas (Group 3: 10.0% in DMI, 10 mg/kg, Day 9): 100.0%
- % Reduction Fleas (Group 3: 10.0% in DMI, 10 mg/kg, Day 30): 100.0%
- % Reduction Fleas (Group 3: 10.0% in DMI, 10 mg/kg, Day 51): 100.0%
- % Reduction Fleas (Group 3: 10.0% in DMI, 10 mg/kg, Day 72): 100.0%
- % Reduction Fleas (Group 3: 10.0% in DMI, 10 mg/kg, Day 93): 100.0%
- % Reduction Fleas (Group 3: 10.0% in DMI, 10 mg/kg, Day 107): 100.0%
- % Reduction Fleas (Group 3: 10.0% in DMI, 10 mg/kg, Day 121): 100.0%
- % Reduction Fleas (Group 3: 10.0% in DMI, 10 mg/kg, Day 135): 99.8%
- % Reduction Fleas (Group 3: 10.0% in DMI, 10 mg/kg, Day 149): 99.5%
- % Reduction Fleas (Group 3: 10.0% in DMI, 10 mg/kg, Day 155): 50.0%
- % Reduction Fleas (Group 3: 10.0% in DMI, 10 mg/kg, Day 157): 98.1%
- % Reduction Fleas (Group 3: 10.0% in DMI, 10 mg/kg, Day 163): 94.5%
- % Reduction Fleas (Group 3: 10.0% in DMI, 10 mg/kg, Day 170): 87.8%
- % Reduction Fleas (Group 3: 10.0% in DMI, 10 mg/kg, Day 177): 70.8%
- efficacy against fleas (Group 4 (15 mg/kg), up to Day 191): 90%
- % Reduction Fleas (Group 4: 15.0% in DMI, 15 mg/kg, Day 0 (12 hr)): 85.3%
- % Reduction Fleas (Group 4: 15.0% in DMI, 15 mg/kg, Day 2): 100.0%
- % Reduction Fleas (Group 4: 15.0% in DMI, 15 mg/kg, Day 9): 100.0%
- % Reduction Fleas (Group 4: 15.0% in DMI, 15 mg/kg, Day 30): 100.0%
- % Reduction Fleas (Group 4: 15.0% in DMI, 15 mg/kg, Day 51): 100.0%
- % Reduction Fleas (Group 4: 15.0% in DMI, 15 mg/kg, Day 72): 100.0%
- % Reduction Fleas (Group 4: 15.0% in DMI, 15 mg/kg, Day 93): 100.0%
- % Reduction Fleas (Group 4: 15.0% in DMI, 15 mg/kg, Day 107): 100.0%
- % Reduction Fleas (Group 4: 15.0% in DMI, 15 mg/kg, Day 121): 100.0%
- % Reduction Fleas (Group 4: 15.0% in DMI, 15 mg/kg, Day 135): 100.0%
- % Reduction Fleas (Group 4: 15.0% in DMI, 15 mg/kg, Day 149): 100.0%
- % Reduction Fleas (Group 4: 15.0% in DMI, 15 mg/kg, Day 155): 78.0%
- % Reduction Fleas (Group 4: 15.0% in DMI, 15 mg/kg, Day 157): 100.0%
- % Reduction Fleas (Group 4: 15.0% in DMI, 15 mg/kg, Day 163): 100.0%
- % Reduction Fleas (Group 4: 15.0% in DMI, 15 mg/kg, Day 170): 96.2%
- % Reduction Fleas (Group 4: 15.0% in DMI, 15 mg/kg, Day 177): 94.8%
